Source: US20210147455A1 (SHAANXI SYNTHETIC PHARMACEUTICAL CO., LTD., priority 2018, published 2021)

What was measured:
[1] = Stability experiments under 40° C.±2° C. and 75% R.H±5% R.H (accelerated test); type: physicochemical; conditions: 40° C./75% R.H
[2] = Hygroscopicity study (Chinese Pharmacopoeia 2015, 9103); type: physicochemical; conditions: for Hygroscopic weight gain: 25° C.±1° C., saturated ammonium chloride solution, 24 hours; for Conclusion (hygroscopicity): after 24 hours
Description: Test method: • 1. A dried glass weighing bottle with stopper (having an outer diameter of 50 mm and a height of 15 mm) was placed in a thermostatic drier (a saturated ammonium chloride solution was placed on the lower part of the thermostatic drier) at an appropriate temperature of 25° C.±1° C. on the day earlier before the test, and the weight (m1) of weighing bottle was precisely weighed. • 2. An appropriate amount of test sample was taken and spread in the weighing bottle, and the thickness of the test sample was controlled to about 1 mm, and the weight (m2) was precisely weighed. • 3. The weighing bottle was opened and was placed, together with the bottle cap, under the above mentioned constant temperature and humidity condition for 24 hours. • 4. The weighing bottle was capped and precisely weighed to obtain the weight (m3).
Description of hygroscopicity characterization and delimitation of hygroscopicity weight gain: Deliquescence: enough moisture is absorbed to form a liquid. […] Slightly hygroscopic: hygroscopic weight gain is less than 2% but not less than 0.2%. Not or hardly hygroscopic: hygroscopic weight gain is less than 0.2%.

[3] = Stability experiments under 25° C.±2° C. and 65% R.H±5% R.H; conditions: 25° C./65% R.H
From the text: • 1. […] The results are shown in detail in the following table.

Row | Compound | Content ([1]; month 0) [%] | Description ([1]; month 0) | Related substance ([1]; month 0) [%] | Content ([1]; month 1) [%] | Description ([1]; month 1) | Related substance ([1]; month 1) [%] | Content ([1]; month 2) | Description ([1]; month 2) | Related substance ([1]; month 2) [%] | Content ([1]; month 3) [%] | Description ([1]; month 3) | Related substance ([1]; month 3) [%] | Content ([1]; month 6) [%] | Description ([1]; month 6) | Related substance ([1]; month 6) [%] | Hygroscopic weight gain [2] [%] | Content ([3]; month 0) [%] | Description ([3]; month 0) | Related substance ([3]; month 0) [%] | Content ([3]; month 3) [%] | other results
1 | CC[C@@H]([C@H](C)OP(=O)([O-])[O-])n1ncn(-c2ccc(N3CCN(c4ccc(OC[C@@H]5CO[C@@](Cn6cncn6)(c6ccc(F)cc6F)C5)cc4)CC3)cc2)c1=O.C[N+](C)(C)CCO.C[N+](C)(C)CCO [Comparative Example 1, Posaconazole Phosphate Bicholinate] | 99.87 | White | 0.13 | 99.86 | White | 0.14 | 99.84% | White | 0.16 | 99.80 | White | 0.20 | 99.65 | White | 0.35 | 8.76 | 99.87 | White | 0.13 | 99.86 | Description ([3]; month 3): White; Related substance ([3]; month 3): 0.14%; Content ([3]; month 6): 99.81%; Description ([3]; month 6): White; Related substance ([3]; month 6): 0.19%; Content ([3]; month 9): 99.77%; Description ([3]; month 9): White; Related substance ([3]; month 9): 0.23%; Content ([3]; month 12): 99.61%; Description ([3]; month 12): White; Related substance ([3]; month 12): 0.31%; Content ([3]; month 24): 99.22%; Description ([3]; month 24): White; Related substance ([3]; month 24): 0.78%
2 | CCC(C(C)OP(=O)([O-])[O-])n1ncn(-c2ccc(N3CCN(c4ccc(OCC5COC(Cn6cncn6)(c6ccc(F)cc6F)C5)cc4)CC3)cc2)c1=O.C[N+](C)(C)CCO.C[N+](C)(C)CCO.O.O.O.O.O (stereo not shown) [Comparative Example 2, Posaconazole Phosphate Bicholinate Pentahydrate] | 99.87 | White | 0.13 | 99.86 | White | 0.14 | 99.85% | White | 0.16 | 99.79 | White | 0.21 | 99.64 | White | 0.36 | 11.81 | 99.87 | White | 0.13 | 99.86 | Description ([3]; month 3): White; Related substance ([3]; month 3): 0.14%; Content ([3]; month 6): 99.81%; Description ([3]; month 6): White; Related substance ([3]; month 6): 0.19%; Content ([3]; month 9): 99.75%; Description ([3]; month 9): White; Related substance ([3]; month 9): 0.25%; Content ([3]; month 12): 99.71%; Description ([3]; month 12): White; Related substance ([3]; month 12): 0.29%; Content ([3]; month 24): 99.18%; Description ([3]; month 24): White; Related substance ([3]; month 24): 0.82%
3 | CC[C@@H]([C@H](C)OP(=O)(O)O)n1ncn(-c2ccc(N3CCN(c4ccc(OC[C@@H]5CO[C@@](Cn6cncn6)(c6ccc(F)cc6F)C5)cc4)CC3)cc2)c1=O.CNC[C@H](O)[C@@H](O)[C@H](O)[C@H](O)CO [Comparative Example 4, Posaconazole Phosphate Monomeglumine Salt] | 99.87 | White | 0.13 | 99.73 | White | 0.27 | 99.62% | White | 0.38 | 99.50 | White | 0.50 | 99.36 | White | 0.64 | 0.88 | 99.87 | White | 0.13 | 99.81 | Conclusion (hygroscopicity) [2]: Slight hygroscopicity; Description ([3]; month 3): White; Related substance ([3]; month 3): 0.19%; Content ([3]; month 6): 99.69%; Description ([3]; month 6): White; Related substance ([3]; month 6): 0.31%; Content ([3]; month 9): 99.57%; Description ([3]; month 9): White; Related substance ([3]; month 9): 0.43%; Content ([3]; month 12): 99.50%; Description ([3]; month 12): White; Related substance ([3]; month 12): 0.50%; Content ([3]; month 24): 98.98%; Description ([3]; month 24): White; Related substance ([3]; month 24): 1.02%
4 | CC[C@@H]([C@H](C)OP(=O)(O)O)n1ncn(-c2ccc(N3CCN(c4ccc(OC[C@@H]5CO[C@@](Cn6cncn6)(c6ccc(F)cc6F)C5)cc4)CC3)cc2)c1=O.N=C(N)NCCC[C@H](N)C(=O)O [Comparative Example 5, Posaconazole Phosphate Monoarginine Salt] | 99.87 | White | 0.13 | 99.72 | White | 0.28 | 99.60% | White | 0.40 | 99.50 | White | 0.50 | 99.37 | White | 0.63 | 1.02 | 99.87 | White | 0.13 | 99.79 | Conclusion (hygroscopicity) [2]: Slight hygroscopicity; Description ([3]; month 3): White; Related substance ([3]; month 3): 0.21%; Content ([3]; month 6): 99.71%; Description ([3]; month 6): White; Related substance ([3]; month 6): 0.29%; Content ([3]; month 9): 99.58%; Description ([3]; month 9): White; Related substance ([3]; month 9): 0.42%; Content ([3]; month 12): 99.49%; Description ([3]; month 12): White; Related substance ([3]; month 12): 0.51%; Content ([3]; month 24): 99.03%; Description ([3]; month 24): White; Related substance ([3]; month 24): 0.97%
5 | CC[C@@H]([C@H](C)OP(=O)([O-])[O-])n1ncn(-c2ccc(N3CCN(c4ccc(OC[C@@H]5CO[C@@](Cn6cncn6)(c6ccc(F)cc6F)C5)cc4)CC3)cc2)c1=O.O.O.O.O.O.[Na+].[Na+] [Comparative Example 9, Posaconazole Phosphate Disodium Salt Pentahydrate] | 99.87 | White | 0.13 | 99.72 | White | 0.28 | 99.62% | White | 0.38 | 99.45 | White | 0.55 | 99.32 | White | 0.68 | 12.01 | 99.87 | White | 0.13 | 99.73 | Description ([3]; month 3): White; Related substance ([3]; month 3): 0.27%; Content ([3]; month 6): 99.68%; Description ([3]; month 6): White; Related substance ([3]; month 6): 0.32%; Content ([3]; month 9): 99.51%; Description ([3]; month 9): White; Related substance ([3]; month 9): 0.49%; Content ([3]; month 12): 99.41%; Description ([3]; month 12): White; Related substance ([3]; month 12): 0.59%; Content ([3]; month 24): 98.87%; Description ([3]; month 24): White; Related substance ([3]; month 24): 1.13%
6 | Posaconazole Phosphate Disodium Salt [Comparative Example 10] | 99.87 | White | 0.13 | 99.72 | White | 0.28 | 99.60% | White | 0.40 | 99.45 | White | 0.55 | 99.34 | White | 0.66 | 13.91 | 99.87 | White | 0.13 | 99.72 | Description ([3]; month 3): White; Related substance ([3]; month 3): 0.28%; Content ([3]; month 6): 99.62%; Description ([3]; month 6): White; Related substance ([3]; month 6): 0.38%; Content ([3]; month 9): 99.57%; Description ([3]; month 9): White; Related substance ([3]; month 9): 0.43%; Content ([3]; month 12): 99.40%; Description ([3]; month 12): White; Related substance ([3]; month 12): 0.60%; Content ([3]; month 24): 98.84%; Description ([3]; month 24): White; Related substance ([3]; month 24): 1.16%
7 | Posaconazole Phosphate Monosodium Salt [Comparative Example 8] | 99.87 | White | 0.13 | 99.71 | White | 0.29 | 99,63% | White | 0.37 | 99.47 | White | 0.53 | 99.32 | White | 0.68 | 1.92 |  |  |  |  | Conclusion (hygroscopicity) [2]: Slight hygroscopicity
